Reference: patent publication US10550105B2 (Ribon Therapeutics Inc., priority 2018, dated 2020)

Biological target: PARP7 (Homo sapiens (Human), UniProt Q7Z3E1)
Test: Enzymatic assay for inhibition of PARP7: TR-FRET displacement of biotinylated Probe A from the TIPARP active site
Type: binding
Details: Table A-1
Outline: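 TR-FRET, ex 320 nm / em 615 and 665 nm. Signal ratio reflects complex formation.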

Sequence of PARP7 (Q7Z3E1 whole entry): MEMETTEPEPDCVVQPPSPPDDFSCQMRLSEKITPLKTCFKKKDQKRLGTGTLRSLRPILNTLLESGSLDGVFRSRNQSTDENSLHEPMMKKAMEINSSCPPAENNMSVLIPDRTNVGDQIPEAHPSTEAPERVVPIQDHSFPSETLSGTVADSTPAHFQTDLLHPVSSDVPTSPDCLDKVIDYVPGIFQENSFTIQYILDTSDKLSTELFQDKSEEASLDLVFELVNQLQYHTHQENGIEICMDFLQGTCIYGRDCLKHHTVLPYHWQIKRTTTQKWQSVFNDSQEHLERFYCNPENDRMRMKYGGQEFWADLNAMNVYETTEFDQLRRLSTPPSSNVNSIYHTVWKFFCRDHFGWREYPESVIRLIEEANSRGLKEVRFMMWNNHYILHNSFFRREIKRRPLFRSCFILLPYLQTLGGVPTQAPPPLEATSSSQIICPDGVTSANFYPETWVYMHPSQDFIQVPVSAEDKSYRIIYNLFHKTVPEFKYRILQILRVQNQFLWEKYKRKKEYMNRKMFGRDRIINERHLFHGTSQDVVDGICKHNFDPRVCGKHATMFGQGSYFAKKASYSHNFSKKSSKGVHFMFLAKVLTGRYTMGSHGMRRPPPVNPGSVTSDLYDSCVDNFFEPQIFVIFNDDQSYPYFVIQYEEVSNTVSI

Row | Structure (SMILES) | IC50 [µM]
1 | O=C(C[C@@H]1CC[C@H](CNc2cn[nH]c(=O)c2C(F)(F)F)O1)N1CCN(c2ncc(C(F)(F)F)cn2)CC1 [Example 568 Isomer D, 5-((((2R,5S)-5-(2-Oxo-2-(4-(5-(trifluoromethyl)pyrimidin-2-yl)piperazin-1-yl)ethyl)tetrahydrofuran-2-yl)methyl)amino)-4-(trifluoromethyl)pyridazin-3(2H)-one] | < 0.1
2 | N#Cc1ccc(N2CCN(C(=O)CCOC[C@@H](Nc3cn[nH]c(=O)c3C(F)(F)F)C3CC3)CC2)nc1 [Example 605, (S)-6-[4-[3-[2-Cyclopropyl-2-[[6-oxo-5-(trifluoromethyl)-1,6-dihydropyridazin-4-yl]amino]ethoxy]propanoyl]piperazin-1-yl]nicotinonitrile] | < 0.1
3 | C[C@H](CC(=O)N1CCN(c2ccc(C#N)cn2)CC1)OC[C@@H]1CCCN1c1cn[nH]c(=O)c1C(F)(F)F [Example 123A, 6-[4-[(3R)-3-[[(2S)-1-[6-oxo-5-(trifluoromethyl)-1,6-dihydropyridazin-4-yl]pyrrolidin-2-yl]methoxy]butanoyl]piperazin-1-yl]pyridine-3-carbonitrile] | < 0.1
4 | N#Cc1cccnc1N1CCN(C(=O)c2cccc(OCC3c4ccccc4CN3c3cn[nH]c(=O)c3C(F)(F)F)c2)CC1 (stereo not shown) [Example 358, 2-(4-(3-((2-(6-Oxo-5-(trifluoromethyl)-1,6-dihydropyridazin-4-yl)isoindolin-1-yl)methoxy)benzoyl)piperazin-1-yl)nicotinonitrile] | < 0.1
5 | NC(=O)c1cccc2c1CN(c1cn[nH]c(=O)c1C(F)(F)F)C2 [Example 269, 2-(6-Oxo-5-(trifluoromethyl)-1,6-dihydropyridazin-4-yl)isoindoline-4-carboxamide] | < 0.1
6 | N#Cc1ccc(N2CCN(C(=O)N3CC(OC[C@@H]4CCCN4c4cn[nH]c(=O)c4C(F)(F)F)C3)CC2)nc1 [Example 125, 6-[4-(3-[[(2S)-1-[6-oxo-5-(trifluoromethyl)-1,6-dihydropyridazin-4-yl]pyrrolidin-2-yl]methoxy]azetidine-1-carbonyl)piperazin-1-yl]pyridine-3-carbonitrile] | < 0.1
7 | C[C@@H](COCCC(=O)N1CCN(c2ncc(C#N)s2)CC1)Nc1cn[nH]c(=O)c1C(F)(F)F [Example 680, (S)-2-(4-(3-(2-((6-Oxo-5-(trifluoromethyl)-1,6-dihydropyridazin-4-yl)amino)propoxy)propanoyl)piperazin-1-yl)thiazole-5-carbonitrile] | < 0.1
8 | CC(=O)N1CCN(C(=O)CCOC[C@@H]2c3ccccc3CN2c2cn[nH]c(=O)c2C(F)(F)F)CC1 [Example 419, (S)-5-(1-((3-(4-Acetylpiperazin-1-yl)-3-oxopropoxy)methyl)isoindolin-2-yl)-4-(trifluoromethyl)pyridazin-3(2H)-one] | < 0.1
9 | CC(C)c1c(N2Cc3ccc(O[C@@H]4CCCNC4)cc3C2)cn[nH]c1=O [Example 292, (R)-4-Isopropyl-5-(5-(piperidin-3-yloxy)isoindolin-2-yl)pyridazin-3(2H)-one] | ≥ 1
10 | O=C(C[C@@H]1CC[C@@H]([C@@H]2CCCN2c2cn[nH]c(=O)c2C(F)(F)F)O1)N1CCN(c2ncc(Cl)cn2)CC1 [Example 147A, 5-[(2S)-2-[(2S,5S)-5-[2-[4-(5-chloropyrimidin-2-yl)piperazin-1-yl]-2-oxoethyl]oxolan-2-yl]pyrrolidin-1-yl]-4-(trifluoromethyl)-2,3-dihydropyridazin-3-one] | < 0.1
11 | CC(=O)N1CCN(C(=O)c2cccc(OC[C@@H]3CCCN3c3cn[nH]c(=O)c3C(F)(F)F)c2)CC1 [Example 449, (S)-5-(2-((3-(4-Acetylpiperazine-1-carbonyl)phenoxy)methyl)pyrrolidin-1-yl)-4-(trifluoromethyl)pyridazin-3(2H)-one] | 0.1 to 1
12 | O=C(C[C@H]1CC[C@H]([C@@H]2CCCN2c2cn[nH]c(=O)c2C(F)(F)F)O1)N1CCN(c2ncc(Cl)cn2)CC1 [Example 147D, 5-[(2S)-2-[(2R,5R)-5-[2-[4-(5-chloropyrimidin-2-yl)piperazin-1-yl]-2-oxoethyl]oxolan-2-yl]pyrrolidin-1-yl]-4-(trifluoromethyl)-2,3-dihydropyridazin-3-one] | < 0.1
13 | NC1CCN(c2cccc3c2CN(c2cn[nH]c(=O)c2C(F)(F)F)C3)C1 (stereo not shown) [Example 306, 5-(4-(3-Aminopyrrolidin-1-yl)isoindolin-2-yl)-4-(trifluoromethyl)pyridazin-3(2H)-one] | < 0.1
14 | N#Cc1ccc(N2CCN(C(=O)c3cncc(OC[C@H]4c5ccccc5CN4c4cn[nH]c(=O)c4C(F)(F)F)c3)CC2)nc1 [Example 354, (R)-6-(4-(5-((2-(6-Oxo-5-(trifluoromethyl)-1,6-dihydropyridazin-4-yl)isoindolin-1-yl)methoxy)nicotinoyl)piperazin-1-yl)nicotinonitrile] | 0.1 to 1
15 | N#Cc1ccc(N2CCN(C(=O)CCOCCOc3cn[nH]c(=O)c3C(F)(F)F)CC2)nc1 [Example 501, 6-[4-[3-(2-[[6-Oxo-5-(trifluoromethyl)-1,6-dihydropyridazin-4-yl]oxy]ethoxy)propanoyl]piperazin-1-yl]pyridine-3-carbonitrile] | < 0.1
16 | CNc1cccc2c1CN(c1cn[nH]c(=O)c1C(F)(F)F)C2 [Example 215, 5-(4-(Methylamino)isoindolin-2-yl)-4-(trifluoromethyl)pyridazin-3(2H)-one] | < 0.1
17 | N#Cc1ccc(N2CCN(C(=O)c3cccc(OCCOC[C@H]4CCN(c5cn[nH]c(=O)c5C(F)(F)F)C4)c3)CC2)nc1 [Example 471, (S)-6-(4-(3-(2-((1-(6-oxo-5-(trifluoromethyl)-1,6-dihydropyridazin-4-yl)pyrrolidin-3-yl)methoxy)ethoxy)benzoyl)piperazin-1-yl)nicotinonitrile] | < 0.1
18 | N#Cc1ccc(N2CCN(C(=O)CCOCCOc3cn[nH]c(=O)c3C#N)CC2)nc1 [Example 554, 5-(2-[3-[4-(5-Cyanopyridin-2-yl)piperazin-1-yl]-3-oxopropoxy]ethoxy)-3-oxo-2,3-dihydropyridazine-4-carbonitrile] | < 0.1
19 | C[C@@H](COCCC(=O)N1CCN(c2ncccc2C#N)CC1)Nc1cn[nH]c(=O)c1C(F)(F)F [Example 676, (S)-2-(4-(3-(2-((6-Oxo-5-(trifluoromethyl)-1,6-dihydropyridazin-4-yl)amino)propoxy)propanoyl)piperazin-1-yl)nicotinonitrile] | < 0.1
20 | N#Cc1c(N2Cc3cccc(OC4CCNCC4)c3C2)cn[nH]c1=O [Example 182, 3-Oxo-5-(4-(piperidin-4-yloxy)isoindolin-2-yl)-2,3-dihydropyridazine-4-carbonitrile formic acid] | ≥ 1
21 | N#Cc1cnc(N2CCN(C(=O)c3cc(OCC4c5ccccc5CN4c4cn[nH]c(=O)c4C(F)(F)F)ccn3)CC2)nc1 (stereo not shown) [Example 380, 2-(4-(4-((2-(6-Oxo-5-(trifluoromethyl)-1,6-dihydropyridazin-4-yl)isoindolin-1-yl)methoxy)picolinoyl)piperazin-1-yl)pyrimidine-5-carbonitrile] | < 0.1
22 | CN(CCOc1cccc(C(=O)N2CCN(c3ccc(C#N)cn3)CC2)c1)c1cn[nH]c(=O)c1C(F)(F)F [Example 29, 6-(4-[[3-(2-[methyl[6-oxo-5-(trifluoromethyl)-1,6-dihydropyridazin-4-yl]amino]ethoxy)phenyl]carbonyl]piperazin-1-yl)pyridine-3-carbonitrile] | < 0.1
